Assay results: patent US10568899B2, “Combinations of a mithramycin analogue and another chemotherapeutic agent for the treatment of triple negative breast cancer” (ENTRECHEM, S.L., priority 2015, dated 2020)

Assays:
[1] = tested on: HBL-100 cells; test: MTT-based cell proliferation assay, single drugs and combinations (CI by CalcuSyn)
Description: (§1) All cell lines were cultured at 37° C. in a humidified atmosphere in the presence of a mixture of 5% CO2 and 95% air. Cells were grown in DMEM or in RPMI medium containing high glucose concentration (4,500 mg/liter) and antibiotics (penicillin at 100 mU/ml, streptomycin at 100 μg/ml) and supplemented with 10% FBS. Cell lines were provided by Drs. J. Losada and A. Balmain, (originally from Dr. J. W. Gray's Laboratory who in turn obtained them from the ATCC or from collections development in the laboratories of Drs. S. Ethier and A. Gazdar, to avoid errors occurring when obtained through “second-hand” sources) [Cancer Cell. (2006) 10:515-527]. Cell identities were verified by STR analyses [Oncogene (2014) 33:148-156].
(§2) Cells were plated in 24-well plates at 10,000-20,000 cells/well and cultured overnight in DMEM or RPMI+10% FBS. […] Cell proliferation was analyzed 48 and 72 hours later by an MTT-based assay as described in Cancer Res. (2005) 65:6801-6810.
(§3) Results are plotted as the mean±SD values of quadruplicates from two experiments.
(§4) To explore whether F(I) potentiated the action of drugs used in the therapy of TNBC, drug combination experiments were performed, and the results analyzed by the Chou and Talalay algorithm [Adv. Enzyme Regul.

[2] = tested on: MDA-MB-231 cells; test: as above
Description: as §1, §2, §3, §4

[3] = tested on: TNBC cell lines (HCC-70, HCC-3153, BT549, MDA-MB-231, HCC-1937, HBL-100, HCC-1187 and HS578T); test: MTT metabolism in panel of TNBC cell lines; format: cell-based
Description: as §1
Cells were plated in 24-well plates at 10,000-20,000 cells/well and cultured overnight in DMEM or RPMI+10% FBS. The next day medium was replaced with DMEM or RPMI containing different concentrations of F(I). Cell proliferation was analyzed 48 and 72 hours later by an MTT-based assay as described in Cancer Res. (2005) 65:6801-6810. […]
To analyze the potential antineoplastic effect of F(I) on TNBC, its action on a panel of eight representative TNBC cell lines (HCC-70, HCC-3153, BT549, MDA-MB-231 (MDAMB231), HCC-1937, HBL-100 (HBL100), HCC-1187 and HS578T) using MTT metabolism as readout of the effect of F(I) on cell number was evaluated. […]

[4] = tested on: MDA-MB-231 xenografted tumors; test: Xenograft study, tumour volume; format: in vivo, mice; conditions: F(I) 12 mg/kg intravenously every 3 days; FIG. 2
Description: Mice were manipulated at the animal facility of the CIC in Salamanca following legal guidelines. Female BALB/c nu/nu mice (7 weeks old) were obtained from Charles River Laboratories (Wilmington, Mass., USA). A total of 5×10^6 MDA-MB231 cells in 100 μL of DMEM and 100 μL of Matrigel (BD Biosciences) were injected subcutaneously into the right and left flank of each mouse. When tumours reached a mean volume of 100 mm^3, animals (n=32) were randomized into four groups (with equal average tumour volumes) (vehicle n=8, F(I) n=8, docetaxel n=8, and F(I)+docetaxel n=8). […] Tumour diameters were serially measured by callipers twice per week and tumour volumes were calculated by the following formula: volume=width^2×length/2. Mice were sacrificed on day 41. For biochemical and drug accumulation analyses, tumor samples were obtained after sacrifice of the animals by CO2 inhalation, and 6 hours after being treated with the different drugs, and immediately frozen in liquid nitrogen. The tumors were minced, washed with PBS, and homogenized (Dispomix, L&M Biotech, Holly Springs, N.C., USA) in ice-cold lysis buffer (1.5 mL/100 mg tumor). […]
Comparisons of continuous variables between two groups for the mice tumor model experiments were performed using a two-sided Student's t-test. […] All data were analyzed using the statistical software SPSS 21.0 (SPSS Inc., Chicago, Ill.). […]

[5] = Body weight of treated mice; format: in vivo
Description: (§5) Mice were manipulated at the animal facility of the CIC in Salamanca following legal guidelines. Female BALB/c nu/nu mice (7 weeks old) were obtained from Charles River Laboratories (Wilmington, Mass., USA). A total of 5×10^6 MDA-MB231 cells in 100 μL of DMEM and 100 μL of Matrigel (BD Biosciences) were injected subcutaneously into the right and left flank of each mouse. When tumours reached a mean volume of 100 mm^3, animals (n=32) were randomized into four groups (with equal average tumour volumes) (vehicle n=8, F(I) n=8, docetaxel n=8, and F(I)+docetaxel n=8). Mice were treated every four days intravenously with 12 mg/kg of F(I), and weekly, intraperitoneally with docetaxel 15 mg/kg. Tumour diameters were serially measured by callipers twice per week and tumour volumes were calculated by the following formula: volume=width^2×length/2. Mice were sacrificed on day 41. For biochemical and drug accumulation analyses, tumor samples were obtained after sacrifice of the animals by CO2 inhalation, and 6 hours after being treated with the different drugs, and immediately frozen in liquid nitrogen. The tumors were minced, washed with PBS, and homogenized (Dispomix, L&M Biotech, Holly Springs, N.C., USA) in ice-cold lysis buffer (1.5 mL/100 mg tumor). This homogenate was centrifuged at 10,000×g for 20 minutes at 4° C., and the supernatants were transferred to new tubes. […]

[6] = cited from earlier work
[7] = F(I) concentration in the tumors; format: in vivo; conditions: 6 hours after the last treatment, F(I) 12 mg/kg intravenously, two tumors from two different mice
Description: as §5

## Cc1nc(Nc2ncc(C(=O)Nc3c(C)cccc3Cl)s2)cc(N2CCN(CCO)CC2)n1 [Dasatinib, dasatinib]
[1]; Dasatinib 0.5 μM alone
  MTT metabolism mean, Assay 1: 61.25%
  MTT metabolism mean, Assay 2: 65.30%
[1]; Dasatinib 1.0 μM alone
  MTT metabolism mean, Assay 1: 61.08%
  MTT metabolism mean, Assay 2: 64.94%
[1]; Dasatinib 2.0 μM alone
  MTT metabolism mean, Assay 1: 58.58%
  MTT metabolism mean, Assay 2: 58.48%
[2]; Dasatinib 0.5 μM alone
  MTT metabolism mean, Assay 1: 65.29%
  MTT metabolism mean, Assay 2: 62.89%
[2]; Dasatinib 1.0 μM alone
  MTT metabolism mean, Assay 1: 59.58%
  MTT metabolism mean, Assay 2: 63.07%
[2]; Dasatinib 2.0 μM alone
  MTT metabolism mean, Assay 1: 56.05%
  MTT metabolism mean, Assay 2: 55.89%

## CC(=O)O[C@@]12CO[C@@H]1C[C@H](O)[C@@]1(C)C(=O)[C@H](O)C3=C(C)[C@@H](OC(=O)[C@H](O)[C@@H](NC(=O)OC(C)(C)C)c4ccccc4)C[C@@](O)([C@@H](OC(=O)c4ccccc4)[C@H]21)C3(C)C [Docetaxel, docetaxel]
[1]; Docetaxel 2.5 nM alone
  MTT metabolism mean, Assay 1: 96.93%
  MTT metabolism mean, Assay 2: 83.41%
[1]; Docetaxel 5 nM alone
  MTT metabolism mean, Assay 1: 85.11%
  MTT metabolism mean, Assay 2: 70.61%
[1]; Docetaxel 10 nM alone
  MTT metabolism mean, Assay 1: 55.03%
  MTT metabolism mean, Assay 2: 54.59%
[2]; Docetaxel 2.5 nM alone
  MTT metabolism mean, Assay 1: 84.46%
  MTT metabolism mean, Assay 2: 60.92%
[2]; Docetaxel 5 nM alone
  MTT metabolism mean, Assay 1: 69.03%
  MTT metabolism mean, Assay 2: 51.36%
[2]; Docetaxel 10 nM alone
  MTT metabolism mean, Assay 1: 38.17%
  MTT metabolism mean, Assay 2: 44.50%

## CO[C@@H]([C@@H]1Cc2cc3cc(O[C@H]4CC(O[C@H]5CC(O)[C@H](O)C(C)O5)[C@H](O)C(C)O4)c(C)c(O)c3c(O)c2C(=O)[C@H]1O[C@H]1CC(O[C@H]2CC(O[C@H]3CC(O)[C@H](O)C(C)O3)[C@@H](O)C(C)O2)[C@H](O)C(C)O1)[C@@H](O)C(C)=O (stereo partly drawn) [F(I), demycarosyl-3D-β-D-digitoxosyl-mithramycin SK]
[3]; 72 hours of treatment, all cell lines (FIG. 1)
  IC50: < 100 nM
[3]; all the TNBC cell lines studied, 48 or 72 hours, different doses
  Effect on MTT metabolism: decreased MTT metabolism of all the TNBC cell lines studied in a dose-dependent and time-dependent manner
[4]
  Effect on tumor growth: inhibitory effect on tumor growth
[5]; F(I) 12 mg/kg, FIG. 3
  Body weight: slight decrease initially
[5]; alone or in combination, suggested by body weights, FIG. 6
  Tolerability: well tolerated
[1]; F(I) 10 nM alone
  MTT metabolism mean, Assay 1: 85.52%
  MTT metabolism mean, Assay 2: 99.53%
[1]; F(I) 50 nM alone
  MTT metabolism mean, Assay 1: 66.35%
  MTT metabolism mean, Assay 2: 62.85%
[2]; F(I) 10 nM alone
  MTT metabolism mean, Assay 1: 94.27%
  MTT metabolism mean, Assay 2: 96.65%
[2]; F(I) 50 nM alone
  MTT metabolism mean, Assay 1: 70.05%
  MTT metabolism mean, Assay 2: 59.26%
[6]
  Toxicity in vivo relative to mithramycin (times less toxic): 10 times
[7]
  F(I) concentration in the tumors: 2.2 µg/g
[7]; female, BALB/c nu/nu, mouse, tumor, iv, 12 mg/kg
  concentration at 6 h: 3800 ng/g

## Nc1ccn([C@@H]2O[C@H](CO)[C@@H](O)C2(F)F)c(=O)n1 [Gemcitabine, gemcitabine]
[1]; Gemcitabine 5 nM alone
  MTT metabolism mean, Assay 1: 90.75%
  MTT metabolism mean, Assay 2: 88.93%
[1]; Gemcitabine 10 nM alone
  MTT metabolism mean, Assay 1: 85.93%
  MTT metabolism mean, Assay 2: 83.52%
[1]; Gemcitabine 20 nM alone
  MTT metabolism mean, Assay 1: 61.98%
  MTT metabolism mean, Assay 2: 80.59%
[2]; Gemcitabine 5 nM alone
  MTT metabolism mean, Assay 1: 77.29%
  MTT metabolism mean, Assay 2: 90.99%
[2]; Gemcitabine 10 nM alone
  MTT metabolism mean, Assay 1: 67.76%
  MTT metabolism mean, Assay 2: 84.33%
[2]; Gemcitabine 20 nM alone
  MTT metabolism mean, Assay 1: 48.14%
  MTT metabolism mean, Assay 2: 64.95%

## CCC1=C[C@@H]2CN(C1)Cc1c([nH]c3ccccc13)[C@@](C(=O)OC)(c1cc3c(cc1OC)N(C)[C@H]1[C@@](O)(C(=O)OC)[C@H](OC(C)=O)[C@]4(CC)C=CCN5CC[C@]31[C@@H]54)C2 [Vinorelbine, vinorelbine]
[2]; Vinorelbine 1 nM alone
  MTT metabolism mean, Assay 1: 94.11%
  MTT metabolism mean, Assay 2: 73.02%
[2]; Vinorelbine 3 nM alone
  MTT metabolism mean, Assay 1: 84.61%
  MTT metabolism mean, Assay 2: 71.99%
[2]; Vinorelbine 5 nM alone
  MTT metabolism mean, Assay 1: 84.42%
  MTT metabolism mean, Assay 2: 56.42%
